Experimental data from the supplement of paper PMC13380429.

Legend:
Conditions in all cases: 72 h
HepG2 [1] = test: drug sensitivity score (DSS) for viability; higher = more toxic; extreme values may be limits of the assay
Vero E6 [2] = test: as above
Calu-3 [3] = test: as above
U2OS [4] = test: as above
Caco-2 [5] = test: as above
HepG2 [6] = test: cell viability relative to DMSO; higher = less toxic
Vero E6 [7] = test: as above
Calu-3 [8] = test: as above
U2OS [9] = test: as above
Caco-2 [10] = test: as above
HepG2 [11] = test: relative viability EC50 (midpoint between 100% and the lowest measured viability); higher = less toxic
Vero E6 [12] = test: as above
Calu-3 [13] = test: as above
U2OS [14] = test: as above
Caco-2 [15] = test: as above

Row | SMILES | drug sensitivity score (HepG2 [1]) | drug sensitivity score (Vero E6 [2]) | drug sensitivity score (Calu-3 [3]) | drug sensitivity score (U2OS [4]) | drug sensitivity score (Caco-2 [5]) | cell viability (HepG2 [6]; 1 nM) [%] | cell viability (HepG2 [6]; 10 nM) [%] | cell viability (HepG2 [6]; 100 nM) [%] | cell viability (HepG2 [6]; 1000 nM) [%] | cell viability (HepG2 [6]; 10000 nM) [%] | cell viability (Vero E6 [7]; 1 nM) [%] | cell viability (Vero E6 [7]; 10 nM) [%] | cell viability (Vero E6 [7]; 100 nM) [%] | cell viability (Vero E6 [7]; 1000 nM) [%] | cell viability (Vero E6 [7]; 10000 nM) [%] | cell viability (Calu-3 [8]; 1 nM) [%] | cell viability (Calu-3 [8]; 10 nM) [%] | cell viability (Calu-3 [8]; 100 nM) [%] | cell viability (Calu-3 [8]; 1000 nM) [%] | cell viability (Calu-3 [8]; 10000 nM) [%] | cell viability (U2OS [9]; 1 nM) [%] | cell viability (U2OS [9]; 10 nM) [%] | cell viability (U2OS [9]; 100 nM) [%] | cell viability (U2OS [9]; 1000 nM) [%] | cell viability (U2OS [9]; 10000 nM) [%] | cell viability (Caco-2 [10]; 1 nM) [%] | cell viability (Caco-2 [10]; 10 nM) [%] | cell viability (Caco-2 [10]; 100 nM) [%] | cell viability (Caco-2 [10]; 1000 nM) [%] | cell viability (Caco-2 [10]; 10000 nM) [%] | relative viability EC50 (HepG2 [11]) [µM] | relative viability EC50 (Vero E6 [12]) [µM] | relative viability EC50 (Calu-3 [13]) [µM] | relative viability EC50 (U2OS [14]) [µM] | relative viability EC50 (Caco-2 [15]) [µM]
1 | Nc1ncnc2nc(-c3ccc(N4CCOCC4)nc3)cc(-c3cccc(Br)c3)c12 [ABT-702] | 0 | 0 | 0 | 0 | 0 | 104 | 96.4 | 96.5 | 108 | 89.6 | 96.1 | 100 | 95.2 | 94.4 | 88.1 | 103 | 83.3 | 112 | 95.3 | 100 | 106 | 103 | 104 | 99.8 | 101 | 107 | 99.9 | 102 | 104 | 93.4 | > 10 | > 10 | > 10 | > 10 | > 10
2 | Cn1cc(C(=O)c2cccc3ccccc23)cc1C(=O)O [napirimus] | 0 | 0 | 0 | 0 | 0 | 101 | 97.9 | 103 | 99.8 | 94.8 | 92.9 | 99.7 | 95.2 | 105 | 99 | 98.7 | 104 | 100 | 101 | 104 | 104 | 100 | 101 | 98.3 | 98.4 | 99.3 | 92 | 95.4 | 96.5 | 85.6 | > 10 | > 10 | > 10 | > 10 | > 10
3 | NCC(CS(=O)(=O)O)c1ccc(Cl)cc1 (stereo not given) [saclofen] | 0 | 0 | 0 | 0 | 0.6 | 107 | 107 | 105 | 105 | 98 | 106 | 98.6 | 103 | 101 | 103 | 96.2 | 91.9 | 94.8 | 86.9 | 105 | 93.6 | 99.7 | 95.3 | 96.9 | 104 | 100 | 101 | 91 | 88.7 | 95.5 | > 10 | > 10 | > 10 | > 10 | > 10
4 | CCCn1c(=O)c2[nH]c(-c3cnn(Cc4cccc(C(F)(F)F)c4)c3)nc2n(CC)c1=O [GS-6201] | 0 | 0 | 0 | 0 | 0 | 106 | 91.6 | 104 | 94.2 | 96.8 | 98.5 | 96.1 | 96.5 | 97.8 | 104 | 103 | 109 | 96.3 | 96.1 | 97.4 | 96.9 | 101 | 96.3 | 105 | 100 | 98.5 | 104 | 105 | 108 | 100 | > 10 | > 10 | > 10 | > 10 | > 10
5 | COC(=O)Nc1ccc2[nH]cc(CCNC(C)=O)c2c1 | 0 | 0 | 0 | 0 | 0 | 102 | 94.6 | 98.3 | 96.4 | 91 | 99 | 102 | 103 | 95.3 | 99 | 103 | 96.6 | 98.1 | 97.8 | 97.8 | 98.2 | 104 | 98 | 97.2 | 96.6 | 96.3 | 95.8 | 94.6 | 98.9 | 105 | > 10 | > 10 | > 10 | > 10 | > 10
6 | COc1cc(Br)c(Nc2nc(-c3c(C)nc4ncccn34)cs2)c(Br)c1 [PTC-209] | 8.7 | 11.7 | 5.7 | 10.4 | 8 | 97.1 | 97.5 | 100 | 71.3 | 16.1 | 99.3 | 99.3 | 95.7 | 43.1 | 15.7 | 109 | 102 | 98.9 | 83.2 | 41.2 | 97.7 | 101 | 98.8 | 55.3 | 11.8 | 95.4 | 91.5 | 96.1 | 77.8 | 16.7 | 1.3 | 0.633 | 1.44 | 0.986 | 1.5
7 | O=C1NCCNC1c1cccs1 (stereo not given) [tenilsetam] | 0 | 0 | 0 | 0 | 0 | 106 | 106 | 96.4 | 97.2 | 92.3 | 97.2 | 103 | 90.1 | 97.7 | 101 | 92.3 | 98.2 | 100 | 97.1 | 99.1 | 103 | 96.3 | 104 | 96.2 | 102 | 105 | 95.1 | 103 | 97.5 | 97.4 | > 10 | > 10 | > 10 | > 10 | > 10
8 | CN(C/C=C/C#CC(C)(C)C)Cc1cccc2ccccc12 [terbinafine] | 0 | 0 | 0 | 0 | 0 | 99.4 | 91.9 | 101 | 99.6 | 89 | 104 | 94.2 | 109 | 94.5 | 95.6 | 103 | 102 | 106 | 92.9 | 114 | 103 | 98.9 | 95.3 | 99.5 | 102 | 93 | 81.1 | 90.5 | 112 | 88.5 | > 10 | > 10 | > 10 | > 10 | > 10
9 | COc1cc(C#N)ccc1S(=O)(=O)Nc1ccc2c(c1)cc(C)c(=O)n2C [NI-57] | 0.7 | 0 | 0 | 0 | 0.6 | 106 | 114 | 102 | 94.1 | 85.3 | 98.7 | 103 | 99.6 | 95.7 | 96 | 98.7 | 110 | 101 | 101 | 104 | 101 | 98.2 | 101 | 98.5 | 98.9 | 99.1 | 97.4 | 94.8 | 91.1 | 83.5 | > 10 | > 10 | > 10 | > 10 | > 10
10 | Cn1nnc2c(C(N)=O)ncn2c1=O [temozolomide] | 0 | 0 | 0 | 0 | 0 | 112 | 99.6 | 104 | 93.5 | 114 | 99.4 | 97.5 | 95.9 | 98.2 | 102 | 97.6 | 106 | 102 | 94.5 | 98.6 | 98 | 103 | 92.3 | 96.8 | 95 | 90.3 | 97.3 | 96 | 106 | 99.3 | > 10 | > 10 | > 10 | > 10 | > 10
11 | COc1ccc(/C=C/CCCCOc2ccc(C(=O)c3cccc(C(=O)O)c3)cc2CCC(=O)O)cc1 | 0 | 0 | 0 | 0 | 0 | 102 | 95.3 | 109 | 110 | 106 | 93.9 | 96.3 | 100 | 94.4 | 99 | 102 | 84.6 | 102 | 100 | 111 | 95.8 | 96.2 | 96.3 | 100 | 98.7 | 96.6 | 94 | 102 | 102 | 95.3 | > 10 | > 10 | > 10 | > 10 | > 10
12 | NNC(=O)c1ccncc1 [isoniazid] | 0 | 0 | 0 | 0 | 0 | 107 | 108 | 100 | 103 | 93.7 | 97.8 | 106 | 97.9 | 97.9 | 98.4 | 110 | 98.7 | 100 | 99.2 | 99.8 | 101 | 96.6 | 101 | 96.7 | 102 | 97.4 | 99.4 | 103 | 91.7 | 97.6 | > 10 | > 10 | > 10 | > 10 | > 10
13 | CCCCNc1cc(C(=O)O)cc(S(N)(=O)=O)c1Oc1ccccc1 [bumetanide] | 0 | 0 | 0 | 0 | 0 | 103 | 98.5 | 104 | 107 | 94.6 | 117 | 108 | 107 | 95.6 | 99 | 95 | 93.1 | 104 | 95.4 | 95.1 | 97.9 | 101 | 98.9 | 99.1 | 102 | 90.2 | 103 | 103 | 94.1 | 96.7 | > 10 | > 10 | > 10 | > 10 | > 10
14 | Cc1nn(-c2ccccc2)c(C)c1/C=N/N1CCN(Cc2ccccc2)CC1 [SANT-1] | 0 | 0 | 0.2 | 0 | 0 | 87.1 | 92.3 | 87 | 99.7 | 74.1 | 98.1 | 99.7 | 94.6 | 102 | 106 | 98.6 | 93.8 | 93.1 | 81.7 | 94.3 | 105 | 98.3 | 102 | 99.5 | 102 | 105 | 102 | 99.2 | 94 | 104 | > 10 | > 10 | > 10 | > 10 | > 10
